Results reported in patent publication US20210113524A1, “METHODS OF TREATING MYELOPROLIFERATIVE DISORDERS” (The Henry M. Jackson Foundation for the Advancement of …, priority 2018, published 2021).

Tests used:
Gata1^low mice [1] = assay: Flow cytometry of CD115-/CD41+ megakaryocytes in bone marrow of Gata1^low mice; details: 72 mg/kg/day captopril from 10 to 12 months, euthanized at 13 months, untreated Gata1^low 1.45%, wild type 0.5%, p<0.05
Gata1^low mice [2] = assay: Peripheral complete blood counts with differentials in Gata1^low mice; type: in vivo, mouse; details: 72 mg/kg per day captopril in drinking water from 10 to 12 months, euthanized at 13.5 months
Excerpt: HEMATOL. […] Control animals received acidified water (vehicle) without captopril.
Separate mice were used for each point (n=5-6 per group).
Peripheral blood counts were studied in captopril-treated and untreated Gata1^low mice and their wild-type littermates. […] Complete blood cell counts with differentials were obtained.

Gata1^low mice [3] = assay: Flow cytometry of megakaryocytes in spleen of Gata1^low mice; details: captopril treatment, p<0.05
Gata1^low mice [4] = assay: Spleen histology and spleen weight in Gata1^low mice; type: in vivo, mouse
Protocol: (§1) All animal handling procedures were performed in compliance with guidelines from the National Research Council for the ethical handling of laboratory animals and were approved by the Uniformed Services University of the Health Sciences Institutional Animal Care and Use Committee. Male and female Gata1^low and wild type CD1 mice were purchased from Jackson Laboratories (Bar Harbor, Me.). Quantitative PCR confirmed low expression of Gata1. The mice were crossed to a CD1 background to establish a line of homozygous mutant mice. Mice were kept in a barrier facility for animals accredited by the Association for Assessment and Accreditation of Laboratory Animal Care International. Mice were housed in groups of four. Animal rooms were maintained at 21±2° C., 50%±10% humidity, and 12-hour light/dark cycle with commercial, freely-available rodent ration (Harlan Teklad Rodent Diet 8604, Frederick, Md., USA).
(§2) HEMATOL. 2010; 38: 270-81. […] 2005; 29: 30-6. Based on previously measured volumes of water consumed per day by the mice, the daily water consumption was determined to be a dose of […] [Davis et al., 2010]. Control animals received acidified water (vehicle) without captopril. Animals were euthanized at 13 months of age.
(§3) Tissues were paraffin blocked and stained using standard methods for hematoxylin and eosin (H&E), Masson's trichrome, and Gomori's reticulin stain by Histoserve (Germantown, Md.). Stained slides were evaluated by a pathologist who was blinded to the identity of the treatment groups and using a published system for scoring myelofibrosis [Kvasnicka, H. M., Problems and pitfalls in grading of bone marrow fibrosis, collagen deposition and osteosclerosis—a consensus-based study, HISTOPATHOLOGY 2016; 68: 905-15]. Bone marrow sections were digitally scanned using the Zeiss Axioscan, and images were produced with Zen Lite software (Carl Zeiss, USA).
Levels of megakaryocytes and extramedullary hematopoiesis were compared in the spleens of wild-type, untreated Gata1^low, and captopril-treated Gata1^low mice. […]

Gata1^low mice [5] = assay: Bone marrow histology and myelofibrosis (reticulin) scoring in Gata1^low mice; type: in vivo, mouse
Protocol: as §1, §2, §3
To determine the efficacy of captopril in reversing MF, morphologic and phenotypic changes in the Gata1^low mouse model were evaluated. […]

[6] = system: C57BL/6 mice exposed to 7.9 Gy total body 60Co irradiation; assay: Serum growth factor and cytokine levels (MSD/ELISA) after 7.9 Gy total body irradiation; details: 7.9 Gy TBI
[7] = system: mice exposed to total body radiation; details: mice exposed to total body radiation (Davis et al. 2010); cited from earlier work
Gata1^low mice [8] = assay: qRT-PCR of CD41, CD61, Col1a, Col3a2 mRNA in spleen-derived cells of Gata1^low mice; details: captopril treated Gata1^low mice
Gata1^low mice [9] = assay: qRT-PCR of CD41, CD61, Col1a, Col3a2 mRNA in femur bone marrow of Gata1^low mice; details: 72 mg/kg/day captopril, vs untreated mice, p<0.05

C[C@H](CS)C(=O)N1CCC[C@H]1C(=O)O [captopril]
number of CD115-/CD41+ megakaryocytes in bone marrow (Gata1^low mice [1]): 0.6 % of total live cells | platelet count (Gata1^low mice [2]): did not ameliorate | eosinophils (Gata1^low mice [2]; vs untreated Gata1^low): normalized | lymphocytes (Gata1^low mice [2]; vs untreated Gata1^low): normalized | neutrophils (Gata1^low mice [2]; vs untreated Gata1^low): normalized | white blood cells (WBC) (Gata1^low mice [2]; vs untreated Gata1^low): normalized | decrease in the frequency of megakaryocytes as a percentage of total live cells, spleen (Gata1^low mice [3]): ~2 fold | decrease in splenic weight (Gata1^low mice [4]; captopril for 2 months, vs untreated Gata1^low mice, p<0.05): ~2 fold | extramedullary hematopoiesis in spleen (histology) (Gata1^low mice [4]; captopril for two months, untreated Gata1^low: significant): moderate amounts of extramedullary hematopoiesis | atypical megakaryocytes in spleen (histology) (Gata1^low mice [4]; captopril for two months, vs untreated Gata1^low): reduced numbers of atypical megakaryocytes | megakaryocytic hyperplasia in bone marrow (histology) (Gata1^low mice [5]; captopril for two months (10-12 months of age), evaluated at 13 months, untreated Gata1^low: moderate): only mild megakaryocytic hyperplasia | averaged bone marrow reticulin score (Gata1^low mice [5]; captopril for two months, score out of 3, untreated Gata1^low 1.8, wild type 0): 0.5 | severity of bone marrow fibrosis (histology) (Gata1^low mice [5]; captopril in drinking water (79 mg/kg/day) from 10-12 months of age, evaluated at 13 months, vs untreated Gata1^low): reduced the severity off bone marrow fibrosis | increase in serum EPO ([6]; 4 days post-irradiation, captopril 13 mg/kg/day in drinking water, same with or without captopril): ~10 fold | serum EPO level ([6]; 7 days post-irradiation, captopril 13 mg/kg/day, radiation-plus-vehicle 8.66±0.9, mean±SEM): 0.57 ± 0.7 ng/mL | serum EPO level ([6]; 14 days post-irradiation, captopril 13 mg/kg/day, radiation-plus-vehicle 288±140, mean±SEM): 140 ± 24 ng/mL | serum EPO level ([6]; 21 days post-irradiation, captopril vs vehicle irradiated group): similarly elevated | IL-6 levels post-irradiation ([6]; any time points (3-30 days), captopril 13 mg/kg/day): did not significantly suppress | serum EPO level ([6]; by 30 days post-irradiation, captopril-treated animals): declined sharply | radiation induced G-CSF ([6]; days 7 and 14 post-irradiation, captopril 13 mg/kg/day from 48 hours post-irradiation for 14 days, p<0.05 vs vehicle): significantly suppressed | radiation-induced SAA1 levels ([6]; days 7 and 14 post-irradiation, delayed (48 hours) low-dose captopril 13 mg/kg/day, p<0.05 vs vehicle): significantly attenuated | blood cell recovery (red blood cells, reticulocytes, platelets) and recovery of colony forming units (CFU-GM, CFU-M, total) [7]: improving blood cell recovery | survival rates [7]: improved survival rates | Col3a2 expression (qPCR), spleen (Gata1^low mice [8]): trend toward reduced Col3a2 expression, although this did not reach significance | decrease of CD41 marker (qRT-PCR), spleen (Gata1^low mice [8]; p<0.05): about 6 fold | decrease of CD61 marker (qRT-PCR), spleen (Gata1^low mice [8]; p<0.05): about 5 fold | reduction in the level of Col1a expression (qPCR), spleen (Gata1^low mice [8]; p<0.05): ~4 fold | decrease of CD41 marker (qRT-PCR), bone marrow (Gata1^low mice [9]): approximately 3 fold | decrease of CD61 marker (qRT-PCR), bone marrow (Gata1^low mice [9]): ~2 fold | decrease of Col1a expression, bone marrow (Gata1^low mice [9]): approximately 15 fold | decrease of Col3a2 expression, bone marrow (Gata1^low mice [9]): approximately 4 fold
